Reference: patent US20190008797A1, “ESTROGEN RECEPTOR ALPHA COLIGANDS, AND METHODS OF USE THEREOF” (priority 2016, published 2019)

Tests used:
MCF-7 cells = experiment: ERE-TK-Luc transfection assay in MCF-7 cells; details: 1, 5 or 10 μM + 10 nM E2
U2OS-ERα cells = experiment: Microarray gene regulation in U2OS-ERα cells; type: cell-based, human
Procedure: Total cellular RNA was isolated utilizing the Aurum™ RNA isolation kit (Bio-Rad, Hercules, Calif.) per the manufacturer's directions. RNA isolates were first quantified by nanodrop®, and then qualitatively evaluated by the Bio-Rad Experion™ system per the manufacturer's instructions. Biotin-labeled cRNA samples were prepared using 750 ng of total RNA. Biotin-labeled samples were evaluated by both 260/280 absorbance spectrophotometry and capillary electrophoresis. Labeled cRNA samples were hybridized overnight against Human genome HG U133A-2.0 GeneChip® arrays, (Affymetrix, Santa Clara, Calif.). All treatments were done in triplicate with the same batch of microarrays. The data was analyzed as previously described (Saunier, E. F., et al. Estrogenic plant extracts reverse weight gain and fat accumulation without causing mammary gland or uterine proliferation. PloS one 6, e28333 (2011)).
FIGS. 2a-2f2′, 3′, 4′-THC behaves as a unique coagonist on gene expression in U2OS-ERα cells. […] Expression was assessed by up regulation or down regulation of 3-fold or more and a P-value≤0.05. […] Error bars are ±SEM.

O=C(/C=C/c1ccccc1)c1ccc(O)c(O)c1O [2′, 3′, 4′-THC, 2′, 3′, 4′-trihydroxychalcone]
E2 activation of ERE-TK-Luc (MCF-7 cells): dose-dependent synergistic increase | number of genes regulated, compound alone (U2OS-ERα cells; 10 nM E2 or 5 μM 2′,3′,4′-THC, 3-fold or more, P≤0.05): 31 genes | genes regulated by the combination that were also regulated by E2 (U2OS-ERα cells; 5 μM + 10 nM E2): 534 genes | number of genes regulated by the 2′,3′,4′-THC/E2 combination (U2OS-ERα cells; 5 μM + 10 nM E2): 1,358 genes | unique genes only regulated by the 2′,3′,4′-THC/E2 combination (U2OS-ERα cells; 5 μM + 10 nM E2): 824 genes
